From US5015578A, “BMY-41950 antitumor antibiotic” (Bristol-Myers Squibb Company, priority 1990, dated 1991) come the findings set out here.

Series [1] has as its system B16-F10 (murine melanoma). Put plainly: In vitro cytotoxicity, B16-F10 cells (crystal violet). The following applies: 72 hours, 50% cell death or growth inhibition; for IC50: Mus musculus, B16-F10, read-out: In Vitro Antitumor Activity IC50, B16-F10. Type of series: cell-based. The procedure: (§1) BMY-41950 was tested for in vitro cytotoxic activity against a murine and a human tumor cell line. In vivo it was tested for activity against a murine leukemia tumor model. In vitro, mitomycin C and cisplatin were used as the reference compounds, while etoposide (VP-16) was used as the in vivo reference.
(§2) B16-F10 (murine melanoma) and HCT-116 (human colon cancer cell clone) cells were cultured in Complete McCoys Media. The media consists of 420 ml McCoys 5A media plus 500 mg sodium bicarbonate in 6 ml water, 6.56 mg L-serine. 1.5 mg L-asparagine and 82.4 mg sodium pyruvate in 2 ml water. 6.25 ml essential amino acids (50X, Gibco), 3.0 ml non-essential amino acids (100X, Gibco), 3 ml L-glutamine (200MM), 3 ml MEM vitamins (Gibco), 6.25 ml penicillin/streptomycin (Gibco) and 50 ml of heat-inactivated defined fetal calf serum.
(§3) The two cell lines are harvested during logarithmic phase cell growth and 3600 cells in 150 microliter media were placed in each well of a 96 well microtiter plate. After 24 hours incubation at 37 degrees Celsius in a 95% air/5% carbon dioxide humidified incubator to allow the cells to attach to the plate, fifty microliters of sample/reference drug is added to 11 of 12 of the top row of wells while 50 microliters of media is added to the 12th. The drugs/media are serially diluted (4 fold dilutions) down the 8 wells of the plate. The cells in the presence of drug/media are then incubated for 72 hours. After fixing with 10% formalin, cells killed by the drug were washed off the plate while those surviving cells are stained with 0.0075% crystal violet. After drying, the stain is solubilized with 10% ethanol and 1% acetic acid, the developed plate quantitated on a Dynatech MR 600 plate reader and the IC50 values (drug concentration at which 50% cell death or growth inhibition occurs) calculated.

Series [2] relates to HCT-116 (human colon cancer cell clone). Briefly: In vitro cytotoxicity, HCT-116 cells (crystal violet). Type of series: cell-based. The following applies: 72 hours, 50% cell death or growth inhibition; for IC50: Homo sapiens, HCT-116, read-out: In Vitro Antitumor Activity IC50, HCT-116. The procedure: as §1, §2, §3
For series [3], the system named is Staphylococcus aureus A9537. Briefly: MIC vs. Staphylococcus aureus A9537, in vitro antimicrobial screening. Type of series: cell-based. The following applies: read-out: MIC (Minimum Inhibitory Concentration).
Series [4] relates to Enterococcus faecalis A20688. Briefly: MIC vs. Enterococcus faecalis A20688, in vitro antimicrobial screening. It is filed as cell-based. The following applies: read-out: MIC (Minimum Inhibitory Concentration).
Series [5] relates to lymphocytic leukemia P388 cells. Put plainly: In vivo activity in P388 murine leukemia model. The following applies: days 1-5. Also noted: species or system murine (female CDF1 mice). Here is the method: as §1
In vivo activity of BMY-41950 was determined in a murine leukemia tumor system. Female CDF1 mice were intraperitoneally inoculated with 0.5 ml of diluted ascitic fluid containing 10^6 lymphocytic leukemia P388 cells. Ten mice were untreated and the median survival time of this group was 10 days. Three groups of 4 mice each were treated with BMY-41950 on days 1, 2, 3, 4 and 5 post tumor implant. The drug was administered ip after being initially dissolved in DMSO, Tween 80 and buffered saline. […] Thus the % T/C (survival time of drug treated/survival time of untreated controls×100) was 130%. The criteria for antitumor activity in this murine tumor test is a % T/C of 125 or greater. Thus. BMY-41950 fulfilled the criteria for antitumor activity in the P388 murine leukemia antitumor model.

A short description of the next series: Solubility. It is filed as physicochemical.

Structures are written as SMILES. In brackets after ≈: the same amount, converted by molar mass.

With `N.N.[Cl][Pt][Cl]` [Cisplatin], the “In Vitro Antitumor Activity IC50, B16-F10” value in series [1] came out at 3.9 µg/mL. Besides, the “In Vitro Antitumor Activity IC50, HCT-116” value in series [2] was found to be 15.6 µg/mL.
In the case of `CO[C@@]12[C@H](COC(N)=O)C3=C(C(=O)C(C)=C(N)C3=O)N1C[C@@H]1N[C@@H]12` [Mitomycin C], the half-inhibitory concentration (IC50) in series [1] and in series [2] was 0.98 µg/mL (≈ 2.93 µM) throughout.
Regarding `CNC1CC2OC(C)(C1OC)n1c3ccccc3c3c4c(c5c6ccccc6n2c5c31)C(=O)NC4=O` (centres unmarked) [BMY-41950, 7-oxostaurosporine], the results for the MIC in series [3] and in series [4] were 6.25 µg/mL (≈ 13 µM) and 12.5 µg/mL (≈ 26 µM), respectively. Besides, the IC50 turned out to be 0.98 µg/mL (≈ 2.04 µM) in series [1] and 0.24 µg/mL (≈ 0.499 µM) in series [2]. Besides, in series [5] (2 mg/kg/day ip, criterion for activity 125 or greater), the “% T/C (survival time of drug treated/survival time of untreated controls×100)” value is reported as 130%. This compound yielded a median survival time in series [5] (2 mg/kg/day ip, untreated controls 10 days) of 13 days. Also, the “drug-induced toxicity / deaths” value in series [5] (18 and 6 mg/kg/day ip) is “suffered drug-induced toxicity and all mice died prior to day 7”. Besides, the “Solubility in CHCl3-CH3OH” value in the series “Solubility” (CHCl3-CH3OH (2:1 v/v)) is reported as “soluble”. The “Solubility in dimethylsulfoxide (DMSO)” value in the series “Solubility” (dimethylsulfoxide (DMSO)) was “soluble”. In addition, in “Solubility” (tetrahydrofuran (THF)), the “Solubility in tetrahydrofuran (THF)” value is “soluble”.
